We go through 14 compounds from patent US6958321B2, “Isolation, characterization, cloning and use of a mushroom lectin” (The Regents of the University of Michigan, priority 2001, dated 2005).

Some results are limits rather than exact numbers.

Assay [1] concerns the target T1, Marasmius oreades lectin (MOA, cMOA) (Marasmius oreades, UniProt Q8X123).
T1 sequence (Q8X123 1-293): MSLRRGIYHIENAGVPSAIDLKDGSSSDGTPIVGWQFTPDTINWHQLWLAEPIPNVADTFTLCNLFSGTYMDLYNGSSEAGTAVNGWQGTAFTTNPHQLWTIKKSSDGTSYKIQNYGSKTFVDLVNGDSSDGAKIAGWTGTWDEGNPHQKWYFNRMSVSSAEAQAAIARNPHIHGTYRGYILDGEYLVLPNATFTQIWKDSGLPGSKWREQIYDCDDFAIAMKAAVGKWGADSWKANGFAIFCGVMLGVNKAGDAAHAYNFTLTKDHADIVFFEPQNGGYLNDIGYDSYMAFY
Nature of the assay: Isothermal titration calorimetry, MOA of Example 1 (proteolyzed, clipped form, cMOA). It counts as binding. The conditions noted are these: for Ka / Kd / TΔS / −ΔG / −ΔH / ligand binding: isothermal titration calorimetry; for Ka, cMOA: proteolyzed (clipped) native lectin, Table 6. (ITC needs no label: the signal is the heat of the interaction.)

Assay [2] concerns MOA. Nature of the assay: Sugar ligand binding to MOA (hemagglutination inhibition, hapten inhibition of precipitation, calorimetry). Further details: species or system Marasmius oreades. The conditions noted are these: binding to MOA in solution. On the procedure:
All three methods gave approximately the same results, with the calorimetric data being the most precise.
Being a blood type B agglutinin, MOA was assayed primarily against D-galactosyl-terminated sugars and oligosaccharides. […] Methyl α-galactopyranoside was similarly very poor. […] While not limited to any particular mechanism, and with the understanding that knowledge of the underlying mechanism is not required for the practice of the invention, it is believed that recognition of the L-fucosyl moiety is the reason for limited agglutination of human O erythrocytes and a weak precipitin curve with blood group H substance.

Assay [3] deals with T2, recombinant MOA (rMOA) (Marasmius oreades, UniProt Q8X123).
T2 sequence (Q8X123 1-293): T1 sequence (Q8X123 1-293)
Nature of the assay: Isothermal titration calorimetry, recombinant MOA (rMOA). It counts as binding. As to conditions: read-out: Ka, rMOA (converted). On the procedure: (§1) As this volume underfills the titration cell, variable volume calculations were applied, using the Bindworks software installed in the instrument. […] Finally, the trisaccharide L-Fucα1,2Ga1β1,4G1c (fucosyllactose), related to the blood group H trisaccbaride, was assayed. […] While not to be limited to any particular mechanism, it is believed that this may be the reason that MOA recognizes and agglutinates human O erythrocytes to a limited extent, and gives a weak precipitin curve with blood group H substance.
Expression and characterization of recombinant MOA: A full-length PCR product incorporating NdeI and EcoRI into its forward and reverse primers, respectively, was cloned into PCR Blunt II using topoisomerase (Invitrogen) and subsequently shuttled into an IPTG inducible pT7 expression vector (MOApT7LO). Recombinant MOA was expressed in a Nova Blue DE3 strain of E. coli. Expressing bacteria were collected by centrifugation and resuspended in a lysis buffer consisting of 50 mM NaH2PO4, 300 mM NaCl, 10 mM imidizole, 10mM 2-mercaptoethanol, 1 mM phenylmethylsulfonyl fluoride, 1% NP-40, and a protease inhibitor cocktail. The extract was twice run through a french press. The insoluble fraction was removed by centrifugation (10,000×g, 15 min).
(§2) Purification of recombinant MOA and native intact MOA-Recombinant MOA was purified from the soluble fraction by absorption on a column of melibiose-Sepharose and elution by lactose. Further purification was carried out on an affinity column of Synsorb B. Except for the diaminopropane elution, all affinity purifications were carried out in PBS, pH 7.2, containing 1.25 mM EDTA. After purification, lectin solutions were dialyzed against distilled water and lyophilized. […] Intact native MOA was prepared with a purification procedure (Example 2) that utilized a protease inhibitor cocktail (product P8215, Sigma, St. Louis, Mo.) which was added at the level of 0.1 ml/100 ml extract buffer (instead of phenylmethylsulfonyl fluoride), all buffers lacked Ca^++ and contained 1.25 mM EDTA, and the initial extraction and ammonium sulfate fractionations were carried out under an atmosphere of argon.
(§3) Binding constants of several relevant oligosaccharides to recombinant and intact native MOA were determined calorimetrically.

Assay [4] deals with T3, intact native MOA (nMOA) (Marasmius oreades, UniProt Q8X123).
T3 sequence (Q8X123 1-293): T1 sequence (Q8X123 1-293)
The assay can be described thus: Isothermal titration calorimetry, intact native MOA (nMOA). It counts as binding. The conditions noted are these: read-out: Ka, nMOA (converted). On the procedure: as §1, §2, §3

Assay [5] has as its system immobilized MOA. The assay can be described thus: Binding to MOA-Sepharose 4B affinity column. Further details: species or system Marasmius oreades. As to conditions: washed with PBS, eluted with 20 mM diaminopropane. The text has this:
Further insight into the carbohydrate specificity of MOA was obtained by using immobilized MOA. Immobilization of MOA on a variety of supports is contemplated. In one embodiment, MOA is immobilized on a matrix that can be used in an affinity column (see below). In some embodiments, the matrix comprises Sepharose 4B beads. In some Embodiments, the MOA-conjugated Sepharose 4B beads are packed in a column for binding and affinity isolation and purification studies. Briefly, the MOA-Sepharose column is loaded with glycan, glycoconjugate or serum sample to be tested, then washed with an appropriate buffer (including but not limited to PBS). Bound components are eluted with a suitable elution buffer (including but not limited to 1,3-diaminopropane in NaCl), and the collected fractions are analyzed for the presence of protein or glycan (see Example 6 below). The fractions containing the bound components (eluted as described herein) can be pooled and concentrated.
MOA was immobilized on cyanogen bromide-activated Sepharose 4B as follows. 1.5 g of cyanogen bromide-activated Sepharose 4B was allowed to swell in 100 ml of 1 mM HCl solution for 30 min. The supernatant was removed and the swollen beads (6 ml) were filtered on a sintered funnel, washed several times with 100 ml of 1 mM HCl and finally with 20 ml of 0.1 M sodium bicarbonate buffer, pH 8.3, containing 0.5 M sodium chloride. The beads were quickly transferred to a plastic bottle containing 16.2 mg MOA in the same buffer (10 ml) containing 0.2 M lactose. The plastic bottle was shaken at room temperature for 6 hr and at 4° C. overnight. The beads were filtered on a sintered glass funnel, washed with the coupling buffer, and then shaken in 1 M ethanolamine (12 ml) at room temperature for 2.5 hr to cap all of the unreacted iminocarbonate groups. The beads were filtered, washed alternately with the coupling buffer then sodium acetate buffer (0.1 M, pH 4.0 containing 0.5 M NaCl) four times. A column (1×7 cm) packed with the beads was finally washed with PBS containing 0.04% sodium azide. The beads contained 2.3 mg MOA per ml Sepharose 4B, based on MOA remaining in solution.
In order to assess the binding of various glycans, glycoconjugates and serum samples to MOA-Sepharose, the following general procedure was used. The MOA-Sepharose column was loaded with glycan, glycoconjugate or serum sample (0.6-5 ml) and washed with PBS (15 ml). The bound components were eluted with 20 mM 1,3-diaminopropane in 0.15 M NaCl (15 ml). The fractions collected (1 ml) were neutralized with 1 M phosphoric acid (approximately 16 μl), and analyzed by either absorbance at 280 nm for protein, or by phenol-sulfuric acid assay, as described by Dubois et al. [Anal. Chem. 28: 350 (1956)] for the glycan. The column was finally washed thoroughly with PBS. The fractions containing the bound components were pooled and concentrated by Amicon ultrafiltration (Millipore Corp., Bedford, Mass.) using a membrane (YM10) of 10,000 molecular weight cut-off.

Turning to `CC1OC(OC2C(OC3C(CO)OC(O)C(O)C3O)OC(CO)C(O)C2O)C(O)C(O)C1O` [2′ Fucosyllactose, L-Fucα1,2Ga1β1,4G1c], in assay [1], the Ka was determined as 548 M⁻¹, the Kd came out at 1830 µM, the TΔS is 6.4 kcal/mol and the “−ΔG” value was 3.70 kcal/mol. In assay [1], the “−ΔH” value was 10.1 kcal/mol. For the same compound, the Ka result in assay [1] (Table 3) is reported as “.548 10^3 M^−1”. Moreover, in assay [2], the “ligand binding” value was “low but measurable binding”.

Consider `C[C@@H]1O[C@@H](O[C@H]2C(O)O[C@H](CO)[C@H](O)[C@@H]2O[C@H]2O[C@H](CO)[C@H](O)[C@H](O)[C@H]2O)[C@@H](O)[C@H](O)[C@@H]1O` (some centres unmarked) [B trisaccharide, Galα1,3[Fucα1,2]Gal], for which the “enhancement of affinity to MOA relative to Galα1,3Gal” value in assay [1] (addition of an L-fucosyl group) is reported as 4 fold. For the same compound, in assay [1], the Ka worked out at 36000 M⁻¹, the Kd was 36 µM, the TΔS came out at 14.6 kcal/mol and the “−ΔG” value was 6.01 kcal/mol. Besides, in assay [1], the “−ΔH” value stood at 20.6 kcal/mol and the “Ka, cMOA” value is 27.8 10^3 M^−1. Also, the Ka in assay [1] (Table 3) was 27.8 10^3 M^−1. Besides, the Kd in assay [3] was 21.7 µM.

`OC[C@H]1O[C@H](O[C@H]2[C@@H](O)[C@@H](CO)O[C@@H](O[C@H]3[C@H](O)[C@@H](O)C(O)O[C@@H]3CO)[C@@H]2O)[C@H](O)[C@@H](O)[C@H]1O` (some centres unmarked) [Galα1,3Galβ1,4Glc]: the Kd in assay [4] was 59.9 µM; in assay [3], 75.8 µM.

In assay [1], `OCC1OC(OC2C(O)OC(CO)C(O)C2O)C(O)C(O)C1O` (stereo not drawn) [Galβ1,2Gal, Ga1α1,2Ga1] registered a Kd greater than 10000 µM. In addition, the Ka in assay [1] (Table 3) is <0.1 10^3 M^−1. Also, the “ligand binding” value in assay [1] (Table 3) and in assay [2] was “bound poorly or not at all” throughout.

As to `OCC1OC(OC2C(CO)OC(O)C(O)C2O)C(O)C(O)C1O` (stereo not drawn) [Galβ1,4Gal, G1α1,4Ga1], the Kd in assay [1] was greater than 10000 µM. In assay [1] (Table 3), the Ka was <0.1 10^3 M^−1 and the “ligand binding” value was “bound poorly or not at all”. Also, in assay [2], the “ligand binding” value was “bound poorly or not at all”.

For the compound `OC[C@H]1O[C@@H](OC[C@H]2OC(O)[C@H](O)[C@@H](O)[C@H]2O)[C@H](O)[C@@H](O)[C@H]1O` (some centres unmarked) [Galβ1,6Gal], in assay [1], the TΔS stood at 2.84 kcal/mol, the “−ΔG” value amounted to 3.28 kcal/mol and the “−ΔH” value is 6.12 kcal/mol.

Consider `CO[C@@H]1O[C@H](CO)[C@@H](O)[C@H](O[C@@H]2O[C@H](CO)[C@H](O)[C@H](O)[C@H]2O)[C@H]1NC(C)=O` [LactoNbioseβMe], for which, in assay [1], the Kd was determined as 4670 µM, the TΔS worked out at 3.49 kcal/mol, the “−ΔG” value turned out to be 3.15 kcal/mol and the “−ΔH” value was 6.64 kcal/mol. Further, the Ka in assay [1] (Table 3) was 0.214 10^3 M^−1.

On to `OC[C@H]1O[C@@H](O[C@H]2[C@H](O)[C@@H](O)C(O)O[C@@H]2CO)[C@H](O)[C@@H](O)[C@H]1O` (some centres unmarked) [Lactose], for which, in assay [1], the Ka was 185 M⁻¹, the Kd was 5080 µM, the TΔS stood at 5.76 kcal/mol and the “−ΔG” value amounted to 3.1 kcal/mol. The “−ΔH” value in assay [1] was determined as 8.86 kcal/mol. For the same compound, in assay [1] (Table 3), the Ka is 0.197 10^3 M^−1. In addition, the “ligand binding” value in assay [2] was “very poor ligands”.

For `CC(=O)N[C@H]1C(O)O[C@H](CO)[C@@H](O[C@@H]2O[C@H](CO)[C@H](O)[C@H](O[C@H]3O[C@H](CO)[C@H](O)[C@H](O)[C@H]3O)[C@H]2O)[C@@H]1O` (some centres unmarked) [Linear B2 trisacc., Galα1,3Galβ1,4GlcNAc], the “increase of binding relative to Galα1,3Gal” value in assay [1] (addition of a GlcNAc group to the reducing end) was “approximately 50%”. Besides, in assay [1], the Ka came to 9700 M⁻¹, the Kd came out at 103 µM, the TΔS was found to be 15.2 kcal/mol and the “−ΔG” value is 5.39 kcal/mol. Moreover, in assay [1], the “−ΔH” value worked out at 20.6 kcal/mol and the “Ka, cMOA” value is given as 9.75 10^3 M^−1. Also, the Ka in assay [1] (Table 3) is reported as 9.753 10^3 M^−1. In addition, the Kd in assay [4] was 25.4 µM. Also, the Kd in assay [3] was 33 µM.

On to `CO[C@H]1O[C@H](CO)[C@H](O)[C@H](O)[C@H]1O` [Me-α-Gal, Methyl α-galactopyranoside], for which, in assay [1], the Kd is 8130 µM, the TΔS was found to be 3.06 kcal/mol, the “−ΔG” value amounted to 2.82 kcal/mol and the “−ΔH” value worked out at 5.88 kcal/mol. For the same compound, the Ka in assay [1] (Table 3) is 0.123 10^3 M^−1. Further, the “ligand binding” value in assay [2] is listed as “very poor”.

With `OC[C@H]1O[C@H](OCC2O[C@@H](O)[C@H](O)[C@@H](O)[C@@H]2O)[C@H](O)[C@@H](O)[C@H]1O` (stereo partly drawn) [melibiose, Ga1α1,6G1c], in assay [2], the “ligand binding” value is recorded as “very poor ligands”.

Consider Ga1α1,6Ga1, for which the “ligand binding” value in assay [1] (Table 3) and in assay [2] was “bound poorly or not at all” throughout.

Take “asialofetuin: asialofetuin, with terminal Galβ1,4GlcNAc residues”: the “binding to MOA-Sepharose column” value in assay [5] is “passed through the column”.

Consider “degalactosylated bovine thyroglobulin: α-galactosidase-digested bovine thyroglobulin”, for which the “binding to MOA-Sepharose column” value in assay [5] is “passed through the column”.
